Assay results as given in US6143509A, “Prostate specific antigen peptides and uses thereof” (Abbott Laboratories, priority 1996, dated 2000).

Legend:
[1] = tested on: known anti-PSA monoclonal antibodies; assay: Binding to known anti-PSA monoclonal antibodies (summary); conditions: summary statement
Procedure: (§1) An indirect ELISA assay was used to determine the reactivity and specificity of anti-PSA mAbs and pAbs. For the assay, 96 well microtiter plates (Costar, Cambridge, MA) were coated with PSA (0.5 micrograms/well, Abbott Laboratories, in house product, code# 91969, purified from seminal fluid) or peptides (0.1 mg/well) in 0.1 M carbonate-bicarbonate buffer (pH 9.0) overnight at 4° C. The plates were blocked with 1% BSA in PBS buffer (0.008 M sodium phosphate, 0.002M potassium phosphate, 0.14 M sodium chloride and 0.01M potassium chloride, pH 7.4) for 1 hour, then anti-PSA mAbs or pAbs (100 microliters/well) at varying dilutions were added. After incubation for 1 hour at 25° C., the wells were washed with PBS buffer containing 0.5% Tween 20, then 100 microliters/well of alkaline phosphatase-conjugated antibody (goat anti-mouse IgG or goat anti-rabbit IgG--from Pierce, Rockford, IL) at 5000 fold dilution was added and incubation continued for 1-2 hr at 25° C. After washing, 100 microliters/well of p-nitrophenyl phosphate substrate (Pierce, Rockford, Ill.) was added and the absorbance was measured at 405 nm using an automated microtiter plate reader (Molecular Devices Corp. Menlo Oaks, Calif.).
(§2) (A). Two-site combinations of capture antibody and Europium chelate (Eu)-labeled antibody was used to determine the inhibition of mAbs binding to PSA by the synthetic peptides derived from PSA. Briefly, free PSA (0.05 pmol/well, Wallac, O Y, Turku, Finland) in 0.100 mL of Delfia® buffer (Wallac, O Y) (i.e., a blocking buffer containing 50 mM Tris-HCl (pH 7.75), 0.9% NaCl, 0.05% Na-azide, 0.01% Tween 40, 0.05% bovine-gammaglobulin, 20 μM DTPA, 0.5% BSA, 10 μg/mL native mouse IgG, 5 μg/mL denatured mouse IgG and 20 μg/mL cherry red) was added to microtiter wells coated with the various anti-PSA antibodies being used for capture (1-2 μg/well of antibody) and incubated for 1 hour at 25° C. (Free or total antibodies may be used.) After washing with Delfia® wash solution, peptides (62,500-1,000,000 molar excess to PSA) in 25 mL Delfia® buffer were added together with the Europium chelate-labeled anti-PSA antibody (0.05 pmol), and incubation was continued for 1 hour at 25°0 C. After another four washings, the amount of bound Eu-labeled antibody was determined with time-resolved fluorometry previously described (Pettersson et al., Clin. Chem. 41:1480-88 (1995) & Hemmilia et al., Anal. Biochem. 137:335-43 (1984)).
(§3) (B). […] After another four washings, 100 μl/well of p-nitrophenyl phosphate substrate (Pierce Chemical Co., Rockford, Ill.) was added and the absorbance was measured at 405 nm using an automated microtiter plate reader.

mAb 2C1 = assay: Competitive immunoassay: inhibition of total PSA specific mAb binding to PSA; conditions: FIG. 3A
Procedure: as §2, with “(Free or total antibodies may be used.) After washing with Delfia® wash solution, peptides (62,500-1,000,000 molar excess to PSA) in 25 mL Delfia® buffer were added together with the Europium chelate-labeled anti-PSA antibody (0.05 pmol), and incubation was continued for 1 hour at 25°0 C.” left out
as §3

mAb H164 [2] = assay: as above; conditions: FIG. 3A
Procedure: as §2, with “(Free or total antibodies may be used.) After washing with Delfia® wash solution, peptides (62,500-1,000,000 molar excess to PSA) in 25 mL Delfia® buffer were added together with the Europium chelate-labeled anti-PSA antibody (0.05 pmol), and incubation was continued for 1 hour at 25°0 C.” left out
as §3

[3] = Immunization of rabbits with peptide coupled to KLH; type: in vivo; conditions: FIG. 5 / FIG. 6
Text: Antiserum was elicited by immunizing rabbits with PSA peptide ABT6 coupled to the carrier protein KLH (keyhole limpet hemocyanin) at Bio-Synthesis, Inc. (Lewisville, Tex.) using standard commercially available techniques.
Anti-ABT4 antiserum was elicited by immunizing two rabbits with PSA peptide ABT4 coupled to the carrier protein KLH at Bio-Synthesis, Inc.(Lewisville,Tex.).

[4] = tested on: rabbit anti-ABT4 antiserum; assay: Indirect ELISA, reactivity and specificity of anti-ABT4 antiserum; type: binding; conditions: FIG. 6, relative affinity ABT4 >PSA >hK2a
Procedure: as §1, with “After incubation for 1 hour at 25° C., the wells were washed with PBS buffer containing 0.5% Tween 20, then 100 microliters/well of alkaline phosphatase-conjugated antibody (goat anti-mouse IgG or goat anti-rabbit IgG--from Pierce, Rockford, IL) at 5000 fold dilution was added and incubation continued for 1-2 hr at 25° C.” left out, “Calif.). […]” for “Calif.).”
The reactivity and specificity of Anti-ABT4 antiserum were evaluated by estimating the relative binding affinities (Wang et al., […] 39:1-5 (1982)) for PSA, PSA peptide ABT4 and hK2 peptide (hK2a) as described in Example I. The indirect ELISA assay format described in Section C-I of Example I was used for these studies and the data are shown in FIG. 6. […]

mAb H164 [5] = assay: Indirect ELISA, binding specificity of mAb H164; conditions: FIG. 3C
Procedure: as §1

goat anti-PSA antiserum = assay: Direct ELISA with alkaline phosphatase-labeled goat anti-PSA antiserum; type: binding; conditions: peptides coated on microtiter plates; FIG. 4
Text: Synthetic peptides were also screened by a direct ELISA assay format which utilized a goat anti-PSA antiserum conjugated to alkaline phosphatase. In particular, peptides were coated on microtiter plates and detected by enzyme-labelled anti-PSA polyclonal antibodies. The goat anti-PSA antiserum was produced by immunization with free PSA. […] In addition to those epitopes identified by mAbs as described above, two new epitopes, ABT2 and ABT7, were identified by the anti-PSA antiserum.

mAb 30:5 = assay: Competitive immunoassay: inhibition of mAb binding to PSA by synthetic peptides; conditions: inhibition studies
Procedure: as §2

mAb 6:3 = assay: as above; conditions: inhibition studies
Procedure: as §2

[6] = tested on: mAb 9B10 (specific for free PSA); assay: as above
Procedure: as §2

mAb 2E9 [7] = assay: Indirect ELISA, binding specificity of mAb 2E9; conditions: FIG. 2B
Procedure: as §1

[8] = tested on: rabbit anti-ABT6 antiserum; assay: Indirect ELISA, reactivity and specificity of anti-ABT6 antiserum; type: binding; conditions: FIG. 5
Procedure: as §1, with “After incubation for 1 hour at 25° C., the wells were washed with PBS buffer containing 0.5% Tween 20, then 100 microliters/well of alkaline phosphatase-conjugated antibody (goat anti-mouse IgG or goat anti-rabbit IgG--from Pierce, Rockford, IL) at 5000 fold dilution was added and incubation continued for 1-2 hr at 25° C.” left out, “Calif.). […]” for “Calif.).”
The reactivity and specificity of antiserum anti-ABT6 was evaluated by estimating the relative binding affinities (Wang et al., Urology 39:1-5 (1982)) for PSA, PSA peptide ABT6 and hK2 peptide hK2b as described in Example I. The indirect ELISA format described in Section C-I of Example 1 was used for these studies and the data are shown in FIG. 5.

mAb 2E9 [9] = assay: Competitive immunoassay: inhibition of mAb binding to PSA by synthetic peptides; conditions: competitive immunoassay section C-II-A; FIG. 2A
Procedure: as §2

mAb H68 = assay: as above; conditions: competitive immunoassay section C-II-A; FIG. 2A
Procedure: as §2

[10] = tested on: mAb 5A10 (specific for free PSA); assay: as above; conditions: competitive immunoassay section C-II-A; FIG. 2A
Procedure: as §2

Row | Substance | binding to several known anti-PSA monoclonal antibodies [1] | immunogenicity (ability to elicit antibodies) [3] | binding of anti-ABT4 antiserum (relative binding affinity) [4] | binding of mAb H164 to coated peptide or PSA (mAb H164 [5]) | binding of mAb 2E9 to coated peptide or PSA (mAb 2E9 [7]) | binding of anti-ABT6 antiserum (relative binding affinity) [8] | also measured
1 | CLLGRHSLFHPEDTGQC [ABT4] | specific binding | immunogenic | binds | bound specifically | – | – | inhibition of PSA binding to mAb 2C1 (mAb 2C1): 80%; inhibition of PSA binding to mAb H164 (mAb H164 [2]): 90%
2 | CWGSIEPEEFLTPKKLC [ABT2, synthetic PSA peptide] | specific binding | – | – | – | – | – | epitope identified by goat anti-PSA antiserum (goat anti-PSA antiserum): identified
3 | CNRFLRPGDDSSC [ABT1, synthetic PSA peptide; short version of ABT6] | specific binding | – | – | – | – | – | inhibition of mAb 30:5 (mAb 30:5): 50%; inhibition of mAb 6:3 (mAb 6:3): 23%; inhibition of mAb 9B10 ([6]; inhibition studies): 40%
4 | CMSLLKNRFLRPGDDSC [ABT6] | specific binding | immunogenic | – | – | specific binding | high affinity | binding to mAb 2E9 (mAb 2E9 [9]): selectively bound; binding to mAb 9B10 ([6]; competitive immunoassay section C-II-A, FIG. 2A): specific binding; binding to mAb H68 (mAb H68): selectively bound; binding to mAb 5A10 [10]: specific binding
5 | PSA: Prostate specific antigen, Abbott Laboratories in house product, purified from seminal fluid | – | – | binds | bound specifically | specific binding | high affinity | –
